Key:
[1] = tested on: Lolium spp. resistant to HRAC group B; assay: Greenhouse experiment, post-emergence treatment of ryegrass biotype resistant to HRAC group B; assay type: in vivo; conditions: post-emergence (PO, BBCH 11), about 3 weeks after application
Procedure: (§1) In the standard design of the test, seeds of various broad-leaved weed and weed grass biotypes (origins) were sown in a 8-13 cm diameter pot filled with natural soil of a standard field soil (loamy silt; non-sterile) and covered with a covering soil layer of about 1 cm. The pots were then cultivated in a greenhouse (12-16 h light, temperature day 20-22° C., night 15-18° C.) until the time of application. The pots were treated on a laboratory track sprayer with spray liquors comprising the compositions according to the invention, mixtures of the prior art or components used individually. […]
(§2) About 3 weeks after the application, the soil action or/and foliar action was assessed visually according to a scale of 0-100% in comparison to an untreated comparative group: 0%=no noticable effect compared to the untreated comparative group; 100%=full effect compared to the untreated comparative group. […]
(§3) Insofar as herbicidal effects of the compositions according to the invention compared to mixtures of the prior art or compared to components applied individually against economically important mono- and dicotyledonous harmful plants were the center of attention, the synergistic herbicidal activities were calculated using Colby's formula (cf. S. R. Colby; Weeds 15 (1967), 20-22): […]
(§4) Δ=difference (%) of the measured value (%) to the expected value (%) (measured value minus expected value). […]

[2] = tested on: Lolium spp. resistant to HRAC group A; assay: Greenhouse experiment, post-emergence treatment of ryegrass biotype resistant to HRAC group A; assay type: in vivo; conditions: post-emergence (PO, BBCH 11), about 3 weeks after application
Procedure: as §1, §2, §3, §4

Question: Which “effect (measured value, visual scale 0-100% vs untreated)” value ([1]; 225 g of AS/ha) does the source give for `Nc1c([N+](=O)[O-])ccc(Oc2ccccc2)c1Cl` [(A) aclonifen, 2-chloro-6-nitro-3-phenoxybenzenamine] here?
Answer: The value was 50%.

Question: And the “effect (measured value, visual scale 0-100% vs untreated)” value ([2]; 225 g of AS/ha)?
Answer: Its value is 25%.

Question: With `O=C(Nc1ccc(F)cc1F)c1cccnc1Oc1cccc(C(F)(F)F)c1` [(B) diflufenican, N-(2,4-difluorophenyl)-2-[3-(trifluoromethyl)phenoxy]-3-pyridinecarboxamide] as the compound, how does the “effect (measured value, visual scale 0-100% vs untreated)” value ([1]; 30 g of AS/ha) read?
Answer: The value was 5%.

Question: What about the “effect (measured value, visual scale 0-100% vs untreated)” value ([2]; 30 g of AS/ha) of the same compound?
Answer: The value was 10%.

From US20160286797A1, “Herbicidal Agents Containing Aclonifen” (BAYER CROPSCIENCE AKTIENGESELLSCHAFT, priority 2013, published 2016)
